Measurements taken from ChEMBL document CHEMBL1201862, “PubChem BioAssay data set” (2004).
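Cultured in 96-well plates, cells were exposed to test compound for 48 hours across five concentrations. GI50 is the concentration that inhibits growth by half.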 Activity calls are given as the source filed them. Cut-off read from the data, not from the text of the source: active = GI50 up to about 1.1 µM and inactive = higher.

Tests used:
Assay in all cases: inhibition of tumour cell growth, NCI panel, 48 h
CCRF-CEM = tested on: CCRF-CEM
EKVX = tested on: EKVX
UACC-257 = tested on: UACC-257
Malme-3M = tested on: Malme-3M
SN12C = tested on: SN12C
SF-268 = tested on: SF-268
SK-MEL-2 = tested on: SK-MEL-2
A498 = tested on: A498
NCI-H522 = tested on: NCI-H522
A549 = tested on: A549
OVCAR-3 = tested on: OVCAR-3
TK-10 = tested on: TK-10
HCC 2998 = tested on: HCC 2998
OVCAR-8 = tested on: OVCAR-8
SF-539 = tested on: SF-539
HOP-92 = tested on: HOP-92
HL-60 = tested on: HL-60
LOX IMVI = tested on: LOX IMVI

SMILES	GI50 (CCRF-CEM)	GI50 (EKVX)	GI50 (UACC-257)	GI50 (Malme-3M)	GI50 (SN12C)	GI50 (SF-268)	GI50 (SK-MEL-2)	GI50 (A498)	GI50 (NCI-H522)	GI50 (A549)	GI50 (OVCAR-3)	GI50 (TK-10)	GI50 (HCC 2998)	GI50 (OVCAR-8)	GI50 (SF-539)	GI50 (HOP-92)	GI50 (HL-60)	GI50 (LOX IMVI)
COc1cc2cccc(NC(=O)c3cc(OC)c(OC)c(OC)c3Br)c2cc1OC	4.56 µM (inactive)	21.1 µM (inactive)	3.85 µM (inactive)	18.5 µM (inactive)	16.6 µM (inactive)	18.5 µM (inactive)	19.8 µM (inactive)	30.5 µM (inactive)	11.8 µM (inactive)	14.1 µM (inactive)	13.4 µM (inactive)	29.2 µM (inactive)	28.8 µM (inactive)	12.9 µM (inactive)	15.4 µM (inactive)			
[N-]=[N+]=Nc1ccc(NCCCCCC(=O)ON2C(=O)CCC2=O)c([N+](=O)[O-])c1		98.9 µM (inactive)	> 100 µM (inactive)	27.9 µM (inactive)	27.4 µM (inactive)	39.3 µM (inactive)	42.4 µM (inactive)		39.3 µM (inactive)	78.9 µM (inactive)	54.3 µM (inactive)	42.1 µM (inactive)		60.3 µM (inactive)	30.5 µM (inactive)	10.3 µM (inactive)	32.5 µM (inactive)	48.8 µM (inactive)
CN(C)CCCOc1nc2c(c(=O)n(C)c(=O)n2C)n1C.SC1=NC=NC2=NC=NC12	2.17 µM (inactive)	33.7 µM (inactive)	6 µM (inactive)	0.634 µM (active)	4.06 µM (inactive)	6.31 µM (inactive)	6.52 µM (inactive)	32.8 µM (inactive)	2.79 µM (inactive)	22 µM (inactive)	0.656 µM (active)	0.482 µM (active)		22.2 µM (inactive)	1.7 µM (inactive)	> 100 µM (inactive)		0.303 µM (active)
CC(=O)Nc1ccc(/C=C(\NC(=O)c2ccccc2)c2nc3ccc4c(c3[nH]2)C(=O)c2ccccc2C4=O)cc1	0.904 µM (active)	24.3 µM (inactive)	> 100 µM (inactive)	> 100 µM (inactive)	25.4 µM (inactive)	5.94 µM (inactive)	48.8 µM (inactive)	7.78 µM (inactive)	4.9 µM (inactive)	12.5 µM (inactive)	12.4 µM (inactive)	17.5 µM (inactive)	> 100 µM (inactive)	22.1 µM (inactive)	17.5 µM (inactive)	22.9 µM (inactive)		15.1 µM (inactive)
COc1ccc(NC(=O)CSc2nnc(-c3ccc(NC(C)=O)cc3)o2)cc1	9.55 µM (inactive)	23 µM (inactive)	21.5 µM (inactive)	20.6 µM (inactive)	20 µM (inactive)	15.8 µM (inactive)	19.1 µM (inactive)	15.5 µM (inactive)	14.5 µM (inactive)	20.9 µM (inactive)	17.8 µM (inactive)	21.7 µM (inactive)	19.7 µM (inactive)	20.7 µM (inactive)	> 10 µM (inactive)		21.9 µM (inactive)	10.9 µM (inactive)
COc1ccccc1CCc1cc(OC)c(OC)c(OC)c1	31.8 µM (inactive)	49.3 µM (inactive)	45 µM (inactive)	49.5 µM (inactive)	61.9 µM (inactive)	65.9 µM (inactive)		57.9 µM (inactive)	26.8 µM (inactive)	41.1 µM (inactive)	41.3 µM (inactive)	76.7 µM (inactive)		45.9 µM (inactive)	65.3 µM (inactive)	26.8 µM (inactive)	11 µM (inactive)	40.3 µM (inactive)
CCc1ccccc1NC(=O)C(=O)C1C(=O)N(c2ccccc2)N=C1N (configuration not stated)		> 100 µM (inactive)	> 100 µM (inactive)	> 100 µM (inactive)	> 100 µM (inactive)	> 100 µM (inactive)	> 100 µM (inactive)	> 100 µM (inactive)		> 100 µM (inactive)	> 100 µM (inactive)	> 100 µM (inactive)	> 100 µM (inactive)	> 100 µM (inactive)	> 100 µM (inactive)	> 100 µM (inactive)	72.4 µM (inactive)	> 100 µM (inactive)
